Counter-ions that a name gives are not always drawn.
Key:
Type in all cases: biochemical
serotonine (5-HT) uptake = assay: Activity to inhibit serotonine (5-HT) uptake; details: rat whole brain; 3H-5-HT 10 nM; 37° C.; pH 7.4; read-out: 5-HT uptake inhibitory activity (IC50 μM)
Method: (a) Activity to inhibit serotonine (5-HT) uptake
(§1) The experiment was performed in accordance with the method of Hyttel et al. [Psychopharmacology 60, 13, 1978]. The whole brain of a rat was homogenized in 40 volumes of ice-cooled 0.32M sucrose solution containing 10 μM pargyline and, then, centrifuged (600×G) for 10 minutes. The supernatant was centrifuged (2500×G) for 55 minutes to provide a pellet. This pellet was suspended in Krebs-Ringer-phosphate buffer (pH 7.4; 122 mM NaCl, 4.82 mM KCl, 0.972 mM CaCl2, 1.21 mM MgSO4, 12.7 mM Na2 HPO4, 2.97 mM NaH2 PO4, 0.162 mM EDTA sodium, 10 mM glucose, 1.14 mM ascorbic acid) saturated with a mixed gas (95% O and 5% CO2). To 900 μl of this suspention was added a solution of the test drug (10 μl) in DMSO and the mixture was incubated at 37° C. for 5 minutes. Then, 100 μl of ^3 H-5-HT (final concentration 10 nM) was added and the mixture was further incubated at 37° C. for 5 minutes. This reaction mixture was filtered under suction using a GF/B filter and the filter was washed with 4 ml of the above-mentioned buffer. The radioactivity on the filter was measured by the liquid scintillation method.
The amount of the drug which caused a 50% decrease in 5-HT uptake is shown as 50% inhibitory activity (IC50) in Table 42.

[1] = system: norepinephrine (NE) uptake; assay: Activity to inhibit norepinephrine (NE) uptake; details: rat cerebral cortex; 3H-NE; read-out: NE uptake inhibitory activity (IC50 μM)
Method: as §1
(b) Activity to inhibit norepinephrine (NE) uptake
Using the rat cerebral cortex and, as the substrate, ^3 H-NE, an experiment was performed by otherwise the same procedure as described for 5-HT.

[2] = system: 45Ca2+ uptake (veratrine-stimulated, rat cerebral cortex crude synaptosome fraction); assay: 45Ca2+ uptake inhibition experiment; details: 30 μM veratrine, 37° C., 10 minutes, read-out: 45Ca2+ uptake inhibitory activity (IC50 μM)
Method: The rat cerebral cortex was homogenized in 10 volumes of ice-cooled 0.32M sucrose solution to prepare a crude synaptosome fraction (100×G, 10 min., 12000×G, 20 min.). […] To 900 μl of the homogenate was added a DMSO solution of the test drug (10 μl). The mixture was incubated at 37° C. for 10 minutes, followed by addition of 100 μl of a veratrine solution (containing 0.18 uci ^45 Ca^2+) at a final veratrine concentration of 30 μM. The mixture was incubated at 37° C. for 10 minutes, quenched with 4 ml of ice-cooled EGTA solution (120 mM sodium chloride, 5 mM potassium chloride, 5 mM EGTA, pH=7.5) and suction-filtered using a GF/B filter. The filter was washed twice with 4 ml each of a washing solution (132 mM sodium chloride, 5 mM potassium chloride, 1.3 mM magnesium chloride, 1.2 mM calcium, chloride, 20 mM Tris base, pH 7.5) and the radioactivity of […] was measured by the liquid scintillation method.
The ^45 Ca^2+ uptake inhibition rate was calculated by means of the following equation. [formula] A: The ^45 Ca^2+ uptake after 10 minutes' stimulation with 30 μM veratrine in the presence of the test drug
B: The ^45 Ca^2+ uptake in the absence of veratrine and in the presence of the test drug
C: The ^45 Ca^2+ uptake after 10 minutes' stimulation with 30 μM veratrine in the absence of the test drug
D: The ^45 Ca^2+ uptake in the absence of the test drug and in the absence of veratrine

## COc1ccc(CCNCCCC2(c3ccccc3)COCc3ccccc32)cc1OC (stereo not drawn) [Example I-25, 4-[3-(3,4-Dimethoxyphenethylamino)propyl]-4-phenylisochroman hydrochloride]
Serotonine (5-HT) uptake
  IC50: 0.14 µM
[1]
  IC50: 0.39 µM
[2]
  IC50: 1.19 µM

From patent publication US5654296A, “Condensed heterocyclic compounds, their production and use” (priority 1994, dated 1997)
